This note sets out measurements from patent publication US4666907A, “Phenothiazine and derivatives and analogs and use as leukotriene biosynthesis inhibitors” (Merck Frosst Canada, Inc., priority 1986, dated 1987).

For one experiment, the system named is asthmatic rats. As to the kind of experiment: Asthmatic rat assay (duration of dyspnoea after egg albumin aerosol). Conditions: po; for inhibition in vivo at 3 mg/kg: 3 mg/kg p.o.; for inhibition in vivo at 1.5 mg/kg: 1.5 mg/kg p.o.; for inhibition in vivo at 0.5 mg/kg: 0.5 mg/kg p.o. In kind it is in vivo. From the text: Rats were obtained from an inbred line of asthmatic rats. Both female and male rats from 200 to 300 g were used.
Egg albumin (EA), grade V, crystallized and lyophilized, was obtained from Sigma Chemical Co., St. Louis. Bordetella pertussis vaccine, containing 30×10^9 killed bacteria per ml was obtained from the Institut Armand-Frappier, Laval des Rapides, Quebec. Aluminum hydroxide was obtained from the Regeis Chemical Company, Chicago.
The challenge and subsequent respiratory recordings were carried out in a clear plastic box with internal dimensions 10×6×4 inches. The top of the box was removable; in use, it was held firmly in place by four clamps and an airtight seal was maintained by a soft rubber gasket. […] A Fleisch No. 0000 pneumotachograph was inserted into one end of the box and coupled to a Grass volumetric pressure transducer (PT5-A) which was then connected to a Beckman Type R Dynograph through appropriate couplers. While aerosilizing the antigen, the outlets were open and the pneumotachograph was isolated from the chamber. The outlets were closed and the pneumotachograph and the chamber were connected during the recording or the respiratory patterns. For challenge, 2 ml of a 3% solution of antigen in saline was placed into each nebulizer and the aerosol was generated with air from a small Potter diaphragm pump operating at 10 psi and a flow of 8 liters/minutes.
Rats were sensitized by injection (s.c.) 1 ml of a suspension containing 1 mg EA and 200 mg aluminum hydroxide in saline. Simultaneously, they received an injection (i.p.) of 0.5 ml of B. pertussis vaccine. They were used between days 14 and 18 postsensitization. In order to eliminate the serotonin component of the response, rats were pretreated intravenously 5 minutes prior to aerosol challenge with […] methylserzide. Rats were then exposed to an aerosol of 3% EA in saline for exactly 1 minute, then their respiratory profiles were recorded for a further 25-30 minutes. The duration of continuous dyspnoea was measured from the respiratory recordings.
Compounds were generally administered either intraperitoneally 1 hour prior to challenge or orally 11/2 hours prior to challenge. They were either dissolved in dimethylsulfoxide or suspended in 0.1% methocel and 0.5% Tween 80. The volume injected has 2 ml kg^-1 (intraperitoneally) or 10 ml kg^-1 (orally). Prior to oral treatment rats were starved overnight. Their activity was determined in terms of their ability to decrease the duration of symptoms of dyspnoea in comparison with a group of vehicle-treated controls. Usually, a compound was evaluated at a series of doses and an ED50 was determined. This was defined as the dose (mg/kg) which would inhibit the duration of symptoms by 50%.

In experiment [1] the test system is PAF-induced hyperalgesia in Sprague-Dawley rats. As to the kind of experiment: PAF-induced hyperalgesia assay (vocalization threshold, rat paw). In kind it is in vivo. Conditions: po, read-out: PAF Induced Hyperalgesia Assay % inhibition; for responders at 3 mg/kg: 3 mg/kg p.o.; for responders at 1 mg/kg: 1 mg/kg p.o. Here is the method: Female Sprague-Dawley rats, 35-40 g were fasted overnight. Platelet activating factor, PAF, (L-lecithin B-acetyl O-alkyl) 1 μg/0.1 ml was given by subplantar injection in the rat paw. The compounds to be evaluated were homogenized in aqueous Vehicle (0.9% benzyl alcohol, 0.5% Tween 80 and 0.4% methylcellulose) and administered orally in a volume of 0.1 ml, 30 minutes prior to PAF.
Animals were tested 1, 2, 3 and 4 hours after PAF administration. The vocalization threshold, defined as the pressure (mm Hg) needed to evoke a squeak response, was recorded for both the injected and contralateral paw. No animal was subjected to pressure greater than 60 mm Hg. Hyperalgesia is defined as a decrease in vocalization threshold as compared to a normal paw. Percent inhibition of hyperalgesia was calculated as the proportion of animals with vocalization thresholds greater than 200% of controls.

`O=S1(=O)c2ccccc2Nc2ccc(O)cc21`: in the experiment on asthmatic rats, the inhibition in vivo at 3 mg/kg was determined as 70%. The responders at 3 mg/kg in experiment [1] amounted to 60%.
For `O=S1(=O)c2ccccc2Nc2ccc(O)c(Cl)c21`, in the experiment with asthmatic rats, the inhibition in vivo at 1.5 mg/kg turned out to be 59%. In experiment [1] (1.2 mg/kg p.o.), the responders at 1.2 mg/kg was 50%.
`COc1ccc2c(c1)Sc1cc(C)ccc1N2C` returned an inhibition in vivo at 3 mg/kg in the experiment with asthmatic rats of 58%. The responders at 1 mg/kg in experiment [1] turned out to be 30%.
As for `COc1ccc2c(c1)Sc1c(cc(OC)c(OC(C)=O)c1Br)N2C(C)=O`, in the experiment on asthmatic rats, the inhibition in vivo at 0.5 mg/kg was found to be 58%. Besides, the responders at 0.03 mg/kg in experiment [1] (0.03 mg/kg p.o.) turned out to be 60%.
The compound `COc1ccc2c(c1)Sc1c(cc(OC)c(O)c1Br)N2C(C)=O` returned an inhibition in vivo at 1.5 mg/kg with asthmatic rats of 78%. Moreover, in experiment [1] (0.1 mg/kg p.o.), the responders at 0.1 mg/kg turned out to be 60%.
In the experiment with asthmatic rats (5.0 mg/kg p.o.), `COc1ccc2c(c1)Sc1c(cc(OC)c(O)c1Br)N2C(=O)OC(C)OC(C)=O` (centres unmarked) gave an inhibition in vivo at 5 mg/kg of 42%. Further, the responders at 3 mg/kg in experiment [1] was found to be 60%.
For `c1ccc2c(c1)Nc1ccccc1S2` [drawing 61], the inhibition in vivo at 0.5 mg/kg in the experiment on asthmatic rats was 53%. Further, the responders at 3 mg/kg in experiment [1] is 50%.
As to `COc1ccc2c(c1Cl)Sc1ccccc1N2C` [drawing 64], in the experiment on asthmatic rats (0.2 mg/kg p.o.), testing at 0.2 mg/kg gave an inhibition in vivo of 50%. Also, the responders at 0.016 mg/kg in experiment [1] (0.016 mg/kg p.o.) amounted to 50%.
In turn, `CC(C)C(=O)Oc1ccc2c(c1Cl)Sc1ccccc1N2C` [drawing 66] had an inhibition in vivo at 3 mg/kg in the experiment on asthmatic rats of 35%. In addition, the responders at 1 mg/kg in experiment [1] was determined as 70%.
In the experiment on asthmatic rats, `COc1ccc2c(c1Cl)Sc1ccccc1N2C(C)=O` [drawing 70] returned an inhibition in vivo at 1.5 mg/kg of 59%. Moreover, the responders at 0.01 mg/kg in experiment [1] (0.01 mg/kg p.o.) stood at 50%.

In general, inhibition in vivo refers to the share of the control response that was lost under treatment. Higher therefore signals a strong effect.
